Test results reported in patent US20050130287A1, “Purifying process of soluble proteins of the l.obliqua bristles through prothrombin activation: process for a partial determination of the amino acids sequence of the prothrombin activator; process for determining the prothrombin activation of fraction II, n-terminal and internal fragments sequences” (priority 2002, published 2005).

Target: T1, Lopap (Lonomia obliqua, UniProt Q5ECE3)
T1 construct: from tissue; host or cells: Lonomia obliqua caterpillar bristles
T1 sequence (Q5ECE3 17-201): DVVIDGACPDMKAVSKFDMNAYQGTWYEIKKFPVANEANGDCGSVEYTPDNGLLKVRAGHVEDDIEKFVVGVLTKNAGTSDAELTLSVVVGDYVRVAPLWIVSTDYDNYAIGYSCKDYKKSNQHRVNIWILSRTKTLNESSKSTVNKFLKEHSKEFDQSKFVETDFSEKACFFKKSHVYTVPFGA
Test: Lopap inhibition by PMSF or E-64 (S-2238)
Assay type: biochemical

SMILES	effect on Lopap activity (10 mM PMSF, Lopap 75 nM)	effect on Lopap activity (3,2 mM E-64, Lopap 75 nM)
O=S(=O)(F)Cc1ccccc1 [PMSF, phenylmethylsulphonil fluoride]	completely annulled	–
CC(C)C[C@H](NC(=O)[C@H]1O[C@@H]1C(=O)O)C(=O)NCCCCN=C(N)N (relative stereo) [E-64, trans-epoxysuccinil-L-leucilamide-(4-guanidine-butane)]	–	did not affected it
